# Starred links: 1 amine or outer side, 2 acyl side, 3 side chain; linkers in the order of their positions; H or OH if unused. Positions of bridges follow the written chain, without caps; N, C: chain ends. Residues, ends and D or L forms follow the SMILES beside them. *: point of attachment. C20 diacid = O=C(O)CCCCCCCCCCCCCCCCCCC(=O)*; γGlu = O=C(O)[C@H](CCC(=O)[*:2])N[*:1]
# Tested on: food intake
# Assay: Assay (I) efficacy testing on appetite (food intake), ad libitum fed rat model
# Assay type: in vivo, Sprague Dawley (SD) rats
# Procedure, shortened: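 Food consumption was logged per animal every hour up to 7 h and again at 24 h (occasionally 48 h) after a single 0.01–3 mg/kg dose, given sc, po or ip at dark-phase onset. Ad libitum fed SD rats, 200–250 g, kept on inverted light/dark cycle; vehicle group included, outliers removed by Grubbs test.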
compound,measurement,setting,value
"CC[C@H](C)[C@H](NC(=O)[C@@H]1CCCN1C(=O)CNC(=O)[C@H](Cc1ccccc1)NC(=O)[C@H](CC(N)=O)NC(=O)[C@H](CC(N)=O)NC(=O)[C@H](CO)NC(=O)[C@H](CO)NC(=O)[C@H](CCCNC(=N)N)NC(=O)[C@H](Cc1c[nH]cn1)NC(=O)[C@H](CC(C)C)NC(=O)[C@H](Cc1ccccc1)NC(=O)[C@H](CCC(=O)O)NC(=O)[C@H](C)NC(=O)[C@H](CC(C)C)NC(=O)[C@H](CCCNC(=N)N)NC(=O)[C@H](CCC(N)=O)NC(=O)[C@@H](NC(=O)[C@H](C)NC(=O)[C@@H]1CSSC[C@H](NC(=O)[C@H](Cc2c[nH]cn2)NC(=O)CC[C@H](NC(=O)CCCCCCCCCCCCCCCCCCC(=O)O)C(=O)O)C(=O)N[C@@H](CC(N)=O)C(=O)N[C@@H]([C@@H](C)O)C(=O)N[C@@H](C)C(=O)N[C@@H]([C@@H](C)O)C(=O)N1)[C@@H](C)O)C(=O)N[C@@H](CC(C)C)C(=O)N1CCC[C@H]1C(=O)N1CCC[C@H]1C(=O)N[C@H](C(=O)N[C@@H](CC(N)=O)C(=O)N[C@H](C(=O)NCC(=O)N[C@@H](CO)C(=O)N[C@@H](CC(N)=O)C(=O)N[C@H](C(=O)N[C@@H](Cc1ccc(O)cc1)C(N)=O)[C@@H](C)O)C(C)C)[C@@H](C)O [Example 1, N-alpha-[(S)-4-Carboxy-4-(19-carboxynonadecanoylamino)butyryl]-[His1,Glu14,His17,Arg18]-pramlintide] ({C20 diacid-γGlu}-HCNTATCATQRLAEFLHRSSNNFGPILPPTNVGSNTY-NH2; disulfide 2-7 (inferred))",Food intake reduction 0-24 h 3 nmol/kg (%),0-24 h,50%
same,Food intake reduction 0-24 h 30 nmol/kg (%),"0-24 h, 30 nmol/kg",93%
same,Food intake reduction 24-48 h 3 nmol/kg (%),24-48 h,45%
same,Food intake reduction 24-48 h 30 nmol/kg (%),"24-48 h, 30 nmol/kg",92%
"CC[C@H](C)[C@H](NC(=O)[C@H](CCC(=O)O)NC(=O)CNC(=O)[C@H](Cc1ccccc1)NC(=O)[C@H](CC(N)=O)NC(=O)[C@H](CC(N)=O)NC(=O)[C@H](CO)NC(=O)[C@H](CO)NC(=O)[C@H](CCCNC(=N)N)NC(=O)[C@H](Cc1c[nH]cn1)NC(=O)[C@H](CC(C)C)NC(=O)[C@H](Cc1ccccc1)NC(=O)[C@H](CCC(=O)O)NC(=O)[C@H](C)NC(=O)[C@H](CC(C)C)NC(=O)[C@H](CCCNC(=N)N)NC(=O)[C@H](CCC(N)=O)NC(=O)[C@@H](NC(=O)[C@H](C)NC(=O)[C@@H]1CSSC[C@H](NC(=O)[C@H](Cc2c[nH]cn2)NC(=O)CC[C@H](NC(=O)CCCCCCCCCCCCCCCCCCC(=O)O)C(=O)O)C(=O)N[C@@H](CC(N)=O)C(=O)N[C@@H]([C@@H](C)O)C(=O)N[C@@H](C)C(=O)N[C@@H]([C@@H](C)O)C(=O)N1)[C@@H](C)O)C(=O)N[C@@H](CC(C)C)C(=O)N[C@@H](CO)C(=O)N[C@@H](CCCNC(=N)N)C(=O)N[C@H](C(=O)N[C@@H](CC(N)=O)C(=O)N[C@H](C(=O)NCC(=O)N[C@@H](CO)C(=O)N[C@@H](CC(N)=O)C(=O)N[C@H](C(=O)N[C@@H](Cc1ccc(O)cc1)C(N)=O)[C@@H](C)O)C(C)C)[C@@H](C)O [Example 7, N-alpha-[(S)-4-Carboxy-4-(19-carboxynonadecanoylamino)butyryl]-[His1,Glu14,His17,Arg18,Glu25,Ser28,Arg29]-pramlintide] ({C20 diacid-γGlu}-HCNTATCATQRLAEFLHRSSNNFGEILSRTNVGSNTY-NH2; disulfide 2-7 (inferred); C-terminus assumed)",Food intake reduction 0-24 h 3 nmol/kg (%),0-24 h,53%
same,Food intake reduction 24-48 h 3 nmol/kg (%),24-48 h,46%
"CC[C@H](C)[C@H](NC(=O)[C@@H]1CCCN1C(=O)CNC(=O)[C@H](Cc1ccccc1)NC(=O)[C@H](CC(N)=O)NC(=O)[C@H](CC(N)=O)NC(=O)[C@H](CO)NC(=O)[C@H](CO)NC(=O)[C@H](CCCNC(=N)N)NC(=O)[C@H](Cc1c[nH]cn1)NC(=O)[C@H](CC(C)C)NC(=O)[C@H](Cc1ccccc1)NC(=O)[C@H](CCC(=O)O)NC(=O)[C@H](C)NC(=O)[C@H](CC(C)C)NC(=O)[C@H](CCCNC(=N)N)NC(=O)[C@H](CCC(N)=O)NC(=O)[C@@H](NC(=O)[C@H](C)NC(=O)[C@@H]1CSSC[C@H](NC(=O)[C@H](CCC(=O)O)NC(=O)CC[C@H](NC(=O)CCCCCCCCCCCCCCCCCCC(=O)O)C(=O)O)C(=O)N[C@@H](CC(N)=O)C(=O)N[C@@H]([C@@H](C)O)C(=O)N[C@@H](C)C(=O)N[C@@H]([C@@H](C)O)C(=O)N1)[C@@H](C)O)C(=O)N[C@@H](CC(C)C)C(=O)N1CCC[C@H]1C(=O)N1CCC[C@H]1C(=O)N[C@H](C(=O)N[C@@H](CC(N)=O)C(=O)N[C@H](C(=O)NCC(=O)N[C@@H](CO)C(=O)N[C@@H](CC(N)=O)C(=O)N[C@H](C(=O)N1CCC[C@H]1C(N)=O)[C@@H](C)O)C(C)C)[C@@H](C)O [Example 10, N-alpha-[(S)-4-Carboxy-4-(19-carboxynonadecanoylamino)butyryl]-[Glu1,Glu14,His17,Arg18,Pro37]-pramlintide] ({C20 diacid-γGlu}-ECNTATCATQRLAEFLHRSSNNFGPILPPTNVGSNTP-NH2; disulfide 2-7)",Food intake reduction 0-24 h 3 nmol/kg (%),0-24 h,50%
same,Food intake reduction 24-48 h 3 nmol/kg (%),24-48 h,40%
"CC[C@H](C)[C@H](NC(=O)[C@@H]1CCCN1C(=O)CNC(=O)[C@H](Cc1ccccc1)NC(=O)[C@H](CC(N)=O)NC(=O)[C@H](CC(N)=O)NC(=O)[C@H](CO)NC(=O)[C@H](CO)NC(=O)[C@H](Cc1c[nH]cn1)NC(=O)[C@H](Cc1c[nH]cn1)NC(=O)[C@H](CC(C)C)NC(=O)[C@H](Cc1ccccc1)NC(=O)[C@H](CCC(=O)O)NC(=O)[C@H](C)NC(=O)[C@H](CC(C)C)NC(=O)[C@H](CCCNC(=N)N)NC(=O)[C@H](CCC(N)=O)NC(=O)[C@@H](NC(=O)[C@H](C)NC(=O)[C@@H]1CSSC[C@H](NC(=O)[C@H](Cc2c[nH]cn2)NC(=O)CC[C@H](NC(=O)CCCCCCCCCCCCCCCCCCC(=O)O)C(=O)O)C(=O)N[C@@H](CC(N)=O)C(=O)N[C@@H]([C@@H](C)O)C(=O)N[C@@H](C)C(=O)N[C@@H]([C@@H](C)O)C(=O)N1)[C@@H](C)O)C(=O)N[C@@H](CC(C)C)C(=O)N1CCC[C@H]1C(=O)N1CCC[C@H]1C(=O)N[C@H](C(=O)N[C@@H](CC(N)=O)C(=O)N[C@H](C(=O)NCC(=O)N[C@@H](CO)C(=O)N[C@@H](CC(N)=O)C(=O)N[C@H](C(=O)N[C@@H](Cc1ccc(O)cc1)C(N)=O)[C@@H](C)O)C(C)C)[C@@H](C)O [Example 18, N-alpha-[(S)-4-Carboxy-4-(19-carboxynonadecanoylamino)butyryl]-[His1,Glu14,His17]-pramlintide] ({C20 diacid-γGlu}-HCNTATCATQRLAEFLHHSSNNFGPILPPTNVGSNTY-NH2; disulfide 2-7 (inferred); C-terminus assumed)",Food intake reduction 0-24 h 3 nmol/kg (%),0-24 h,40%
same,Food intake reduction 24-48 h 3 nmol/kg (%),24-48 h,32%
"CC[C@H](C)[C@H](NC(=O)[C@@H]1CCCN1C(=O)CNC(=O)[C@H](Cc1ccccc1)NC(=O)[C@H](CC(N)=O)NC(=O)[C@H](CC(N)=O)NC(=O)[C@H](CO)NC(=O)[C@H](CO)NC(=O)[C@H](Cc1c[nH]cn1)NC(=O)[C@H](Cc1c[nH]cn1)NC(=O)[C@H](CC(C)C)NC(=O)[C@H](Cc1ccccc1)NC(=O)[C@H](CCC(=O)O)NC(=O)[C@H](C)NC(=O)[C@H](CC(C)C)NC(=O)[C@H](CCCNC(=N)N)NC(=O)[C@H](CCC(N)=O)NC(=O)[C@@H](NC(=O)[C@H](C)NC(=O)[C@@H]1CSSC[C@H](NC(=O)[C@H](Cc2c[nH]cn2)NC(=O)[C@H](Cc2c[nH]cn2)NC(=O)[C@H](Cc2c[nH]cn2)NC(=O)CC[C@H](NC(=O)CCCCCCCCCCCCCCCCCCC(=O)O)C(=O)O)C(=O)N[C@@H](CCCNC(=N)N)C(=O)N[C@@H]([C@@H](C)O)C(=O)N[C@@H](C)C(=O)N[C@@H]([C@@H](C)O)C(=O)N1)[C@@H](C)O)C(=O)N[C@@H](CC(C)C)C(=O)N1CCC[C@H]1C(=O)N1CCC[C@H]1C(=O)N[C@H](C(=O)N[C@@H](CC(N)=O)C(=O)N[C@H](C(=O)NCC(=O)N[C@@H](CO)C(=O)N[C@@H](CC(N)=O)C(=O)N[C@H](C(=O)N[C@@H](Cc1ccc(O)cc1)C(N)=O)[C@@H](C)O)C(C)C)[C@@H](C)O [Example 22, N-alpha-[(S)-4-Carboxy-4-(19-carboxynonadecanoylamino)butyryl]-His-His-[His1,Arg3,Glu14,His17]-pramlintide] ({C20 diacid-γGlu}-HHHCRTATCATQRLAEFLHHSSNNFGPILPPTNVGSNTY-NH2; disulfide 4-9 (inferred))",Food intake reduction 0-24 h 3 nmol/kg (%),0-24 h,26%
same,Food intake reduction 24-48 h 3 nmol/kg (%),24-48 h,5%
"CC[C@H](C)[C@H](NC(=O)[C@@H]1CCCN1C(=O)CNC(=O)[C@H](Cc1ccccc1)NC(=O)[C@H](CC(N)=O)NC(=O)[C@H](CC(N)=O)NC(=O)[C@H](CO)NC(=O)[C@H](CO)NC(=O)[C@H](Cc1c[nH]cn1)NC(=O)[C@H](Cc1c[nH]cn1)NC(=O)[C@H](CC(C)C)NC(=O)[C@H](Cc1ccccc1)NC(=O)[C@H](CCC(=O)O)NC(=O)[C@H](C)NC(=O)[C@H](CC(C)C)NC(=O)[C@H](CCCNC(=N)N)NC(=O)[C@H](CCC(N)=O)NC(=O)[C@@H](NC(=O)[C@H](C)NC(=O)[C@@H]1CSSC[C@H](NC(=O)[C@H](CCCCN)NC(=O)[C@H](CCC(=O)O)NC(=O)CC[C@H](NC(=O)CCCCCCCCCCCCCCCCCCC(=O)O)C(=O)O)C(=O)N[C@@H](CC(N)=O)C(=O)N[C@@H]([C@@H](C)O)C(=O)N[C@@H](C)C(=O)N[C@@H]([C@@H](C)O)C(=O)N1)[C@@H](C)O)C(=O)N[C@@H](CC(C)C)C(=O)N1CCC[C@H]1C(=O)N1CCC[C@H]1C(=O)N[C@H](C(=O)N[C@@H](CC(N)=O)C(=O)N[C@H](C(=O)NCC(=O)N[C@@H](CO)C(=O)N[C@@H](CC(N)=O)C(=O)N[C@H](C(=O)N[C@@H](Cc1ccc(O)cc1)C(N)=O)[C@@H](C)O)C(C)C)[C@@H](C)O [Example 26, N-alpha-[(S)-4-Carboxy-4-(19-carboxynonadecanoylamino)butyryl]-Glu-[Glu14,His17]-pramlintide] ({C20 diacid-γGlu}-EKCNTATCATQRLAEFLHHSSNNFGPILPPTNVGSNTY-NH2; disulfide 3-8 (inferred); C-terminus assumed)",Food intake reduction 0-24 h 3 nmol/kg (%),0-24 h,46%
same,Food intake reduction 24-48 h 3 nmol/kg (%),24-48 h,39%

# — US8722849B2, “Polypeptides” (Novo Nordisk A/S, priority 2011, dated 2014)
